Data taken from patent US20190030018A1 (Celgene Corporation, priority 2017, published 2019).

Test system: 563 solid tumor cell lines
Test: Luminex assay in PRISM, 5 days treatment (AUC)
Format: cell-based
Set-up: AUC: scale not given here
Procedure: The AUC values provided in Table 80 below were calculated based on the Median Fluorescent Intensity values, the primary read out of the Luminex assay in PRISM. The following parameters were used in this assay: • 8 point dose was used in triplicate • max concentration of 10 μM was used with serial 4-fold dilutions (low of […]) • 563 adherent cell lines in 23 pools. • treatment duration was 5 days.

Q: For `O=C1CCC(N2Cc3cc(CNC(=O)C(F)(F)c4ccc(Cl)cc4)ccc3C2=O)C(=O)N1` (stereo not shown) [Compound 1, 2-(4-chlorophenyl)-N-((2-(2,6-dioxopiperidin-3-yl)-1-oxoisoindolin-5-yl)methyl)-2,2-difluoroacetamide], which AUC (MON_SOFT_TISSUE) is on record?
A: The AUC was 0.789.

Q: What about the AUC (MPP89_PLEURA) of the same molecule?
A: Its AUC is 0.822.

Q: What about the AUC (NB1_AUTONOMIC_GANGLIA) of the same molecule?
A: Its AUC is 0.096.

Q: And the AUC (NCIH23_LUNG)?
A: Its AUC is 0.951.

Q: And the AUC (NCIH28_PLEURA)?
A: The AUC was 0.936.

Q: And the AUC (NCIH226_LUNG)?
A: Its AUC is 0.637.

Q: And the AUC (NCIH322_LUNG)?
A: Its AUC is 0.714.

Q: What about the AUC (NCIH441_LUNG) of the same molecule?
A: The AUC was 0.755.

Q: And the AUC (NCIH446_LUNG)?
A: Its AUC is 0.820.

Q: And the AUC (NCIH460_LUNG)?
A: Its AUC is 0.917.

Q: What about the AUC (NCIH520_LUNG) of the same molecule?
A: The AUC was 0.562.

Q: And the AUC (NCIH522_LUNG)?
A: Its AUC is 0.974.

Q: And the AUC (NCIH596_LUNG)?
A: The AUC was 0.893.

Q: What about the AUC (NCIH647_LUNG) of the same molecule?
A: The AUC was 0.957.

Q: And the AUC (NCIH650_LUNG)?
A: The AUC was 0.854.

Q: And the AUC (NCIH661_LUNG)?
A: Its AUC is 0.819.

Q: And the AUC (NCIH747_LARGE_INTESTINE)?
A: The AUC was 0.836.

Q: What about the AUC (NCIH838_LUNG) of the same molecule?
A: Its AUC is 0.834.

Q: And the AUC (NCIH841_LUNG)?
A: The AUC was 0.848.

Q: What about the AUC (NCIH1048_LUNG) of the same molecule?
A: Its AUC is 0.116.

Q: What about the AUC (NCIH1299_LUNG) of the same molecule?
A: The AUC was 0.806.

Q: What about the AUC (NCIH1339_LUNG) of the same molecule?
A: The AUC was 0.815.

Q: And the AUC (NCIH1355_LUNG)?
A: The AUC was 0.878.

Q: And the AUC (NCIH1373_LUNG)?
A: Its AUC is 0.959.

Q: And the AUC (NCIH1435_LUNG)?
A: Its AUC is 0.862.

Q: And the AUC (NCIH1437_LUNG)?
A: Its AUC is 0.882.

Q: What about the AUC (NCIH1563_LUNG) of the same molecule?
A: Its AUC is 0.140.

Q: And the AUC (NCIH1568_LUNG)?
A: The AUC was 0.790.

Q: What about the AUC (NCIH1573_LUNG) of the same molecule?
A: Its AUC is 0.995.

Q: What about the AUC (NCIH1581_LUNG) of the same molecule?
A: The AUC was 0.552.

Q: What about the AUC (NCIH1623_LUNG) of the same molecule?
A: Its AUC is 0.997.

Q: What about the AUC (NCIH1648_LUNG) of the same molecule?
A: Its AUC is 0.828.

Q: And the AUC (NCIH1650_LUNG)?
A: Its AUC is 0.835.

Q: And the AUC (NCIH1693_LUNG)?
A: The AUC was 0.949.

Q: What about the AUC (NCIH1703_LUNG) of the same molecule?
A: Its AUC is 0.879.

Q: And the AUC (NCIH1793_LUNG)?
A: Its AUC is 0.290.

Q: What about the AUC (NCIH1915_LUNG) of the same molecule?
A: The AUC was 0.876.

Q: What about the AUC (NCIH1944_LUNG) of the same molecule?
A: The AUC was 0.911.

Q: What about the AUC (NCIH1975_LUNG) of the same molecule?
A: The AUC was 0.866.

Q: And the AUC (NCIH2009_LUNG)?
A: The AUC was 0.760.

Q: And the AUC (NCIH2030_LUNG)?
A: The AUC was 0.839.

Q: What about the AUC (NCIH2073_LUNG) of the same molecule?
A: Its AUC is 0.878.

Q: And the AUC (NCIH2077_LUNG)?
A: The AUC was 0.855.

Q: And the AUC (NCIH2087_LUNG)?
A: The AUC was 0.866.

Q: What about the AUC (NCIH2110_LUNG) of the same molecule?
A: Its AUC is 0.837.

Q: And the AUC (NCIH2126_LUNG)?
A: Its AUC is 0.820.

Q: What about the AUC (NCIH2170_LUNG) of the same molecule?
A: The AUC was 0.887.

Q: What about the AUC (NCIH2172_LUNG) of the same molecule?
A: Its AUC is 0.794.

Q: And the AUC (NCIH2196_LUNG)?
A: The AUC was 0.870.

Q: And the AUC (NCIH2228_LUNG)?
A: Its AUC is 0.851.

Q: And the AUC (NCIH2347_LUNG)?
A: Its AUC is 0.324.

Q: And the AUC (NCIH2444_LUNG)?
A: The AUC was 0.620.

Q: And the AUC (NCIH2452_PLEURA)?
A: The AUC was 0.843.

Q: And the AUC (NCIN87_STOMACH)?
A: The AUC was 0.881.

Q: And the AUC (NUGC3_STOMACH)?
A: Its AUC is 0.261.

Q: And the AUC (NUGC4_STOMACH)?
A: Its AUC is 0.839.

Q: And the AUC (OAW28_OVARY)?
A: The AUC was 0.814.

Q: What about the AUC (OC314_OVARY) of the same molecule?
A: The AUC was 0.915.

Q: And the AUC (OC316_OVARY)?
A: The AUC was 0.872.

Q: And the AUC (OE19_OESOPHAGUS)?
A: The AUC was 0.808.

Q: What about the AUC (OE21_OESOPHAGUS) of the same molecule?
A: Its AUC is 0.893.

Q: And the AUC (OE33_OESOPHAGUS)?
A: The AUC was 0.847.

Q: What about the AUC (ONS76_CENTRAL_NERVOUS_SYSTEM) of the same molecule?
A: The AUC was 0.811.

Q: And the AUC (OSRC2_KIDNEY)?
A: Its AUC is 0.842.

Q: And the AUC (OV7_OVARY)?
A: Its AUC is 0.597.

Q: And the AUC (OV56_OVARY)?
A: The AUC was 0.874.

Q: And the AUC (OV90_OVARY)?
A: Its AUC is 0.939.

Q: And the AUC (OVCAR8_OVARY)?
A: Its AUC is 0.844.

Q: And the AUC (OVISE_OVARY)?
A: Its AUC is 0.630.

Q: And the AUC (OVKATE_OVARY)?
A: Its AUC is 0.851.

Q: And the AUC (OVSAHO_OVARY)?
A: Its AUC is 0.617.

Q: And the AUC (OVTOKO_OVARY)?
A: The AUC was 0.907.

Q: And the AUC (PANC1_PANCREAS)?
A: Its AUC is 0.781.

Q: And the AUC (PANC0203_PANCREAS)?
A: The AUC was 0.927.

Q: And the AUC (PANC0327_PANCREAS)?
A: Its AUC is 0.813.

Q: What about the AUC (PANC0403_PANCREAS) of the same molecule?
A: Its AUC is 0.877.

Q: And the AUC (PANC0504_PANCREAS)?
A: Its AUC is 0.245.

Q: And the AUC (PANC1005_PANCREAS)?
A: Its AUC is 0.540.

Q: And the AUC (PATU8902_PANCREAS)?
A: The AUC was 0.145.

Q: And the AUC (PATU8988T_PANCREAS)?
A: The AUC was 0.075.

Q: And the AUC (PC3_PROSTATE)?
A: Its AUC is 0.735.

Q: And the AUC (PC14_LUNG)?
A: Its AUC is 0.500.

Q: What about the AUC (PECAPJ15_UPPER_AERODIGESTIVE_TRACT) of the same molecule?
A: Its AUC is 0.877.

Q: What about the AUC (PECAPJ41CLONED2_UPPER_AERODIGESTIVE_TRACT) of the same molecule?
A: The AUC was 0.719.

Q: What about the AUC (PECAPJ49_UPPER_AERODIGESTIVE_TRACT) of the same molecule?
A: Its AUC is 0.843.

Q: What about the AUC (PEDS005TADH_KIDNEY) of the same molecule?
A: The AUC was 0.448.

Q: And the AUC (PEDS015T_SOFT_TISSUE)?
A: The AUC was 0.814.

Q: And the AUC (PK1_PANCREAS)?
A: Its AUC is 0.859.

Q: And the AUC (PK45H_PANCREAS)?
A: Its AUC is 0.843.

Q: And the AUC (PK59_PANCREAS)?
A: The AUC was 0.778.

Q: What about the AUC (PLCPRF5_LIVER) of the same molecule?
A: Its AUC is 0.833.

Q: And the AUC (PSN1_PANCREAS)?
A: The AUC was 0.820.

Q: And the AUC (QGP1_PANCREAS)?
A: Its AUC is 0.976.

Q: And the AUC (RCC10RGB_KIDNEY)?
A: The AUC was 0.801.

Q: What about the AUC (RDES_BONE) of the same molecule?
A: The AUC was 0.571.

Q: And the AUC (RD_SOFT_TISSUE)?
A: The AUC was 0.769.

Q: And the AUC (RERFLCAD1_LUNG)?
A: The AUC was 0.782.

Q: And the AUC (RERFLCAD2_LUNG)?
A: The AUC was 0.874.

Q: What about the AUC (RERFLCAI_LUNG) of the same molecule?
A: The AUC was 0.859.

Q: And the AUC (RERFLCKJ_LUNG)?
A: Its AUC is 0.824.

Q: What about the AUC (RKN_SOFT_TISSUE) of the same molecule?
A: The AUC was 0.988.

Q: And the AUC (RKO_LARGE_INTESTINE)?
A: The AUC was 0.847.

Q: And the AUC (RL952_ENDOMETRIUM)?
A: The AUC was 0.403.

Q: What about the AUC (RMUGS_OVARY) of the same molecule?
A: The AUC was 0.857.

Q: And the AUC (RPMI7951_SKIN)?
A: The AUC was 0.786.

Q: What about the AUC (RT112_URINARY_TRACT) of the same molecule?
A: Its AUC is 0.766.

Q: And the AUC (RVH421_SKIN)?
A: Its AUC is 0.839.

Q: What about the AUC (S117_SOFT_TISSUE) of the same molecule?
A: Its AUC is 0.866.

Q: And the AUC (SBC5_LUNG)?
A: The AUC was 0.948.

Q: And the AUC (SCC25_UPPER_AERODIGESTIVE_TRACT)?
A: The AUC was 0.782.

Q: And the AUC (SF126_CENTRAL_NERVOUS_SYSTEM)?
A: Its AUC is 0.862.

Q: And the AUC (SF295_CENTRAL_NERVOUS_SYSTEM)?
A: Its AUC is 0.917.

Q: And the AUC (SF539_CENTRAL_NERVOUS_SYSTEM)?
A: The AUC was 0.888.

Q: What about the AUC (SH4_SKIN) of the same molecule?
A: The AUC was 0.537.

Q: And the AUC (SH10TC_STOMACH)?
A: The AUC was 0.886.
